# Source: patent publication US20130310362A1, “FUSED PYRIMIDINES” (BAYER PHARMA AKTIEGESELLSCHAFT, priority 2009, published 2013)
# How the values were obtained:
# [1] = system: Akt phosphorylation (Ser473) in MCF7 cells; test: Cellular PI3K/Akt pathway assay (Phospho-Akt1 (Ser473) sandwich ELISA); assay type: cell-based; conditions: Homo sapiens, β-Heregulin stimulated, 48 h incubation, read-out: IC50 p-Akt (Biological Assay 5.0)
# Experimental: Biological Assay 5.0: Cellular PI3K/Akt Pathway Assay
# In order to study the cellular activity of the compounds according to the present invention, an Enzyme Linked Immunosorbent Assay (ELISA)-based assay may be used to investigate the inhibitory effect on Akt phosphorylation.
# The ELISA Kit detects endogenous levels of phosphorylated Akt protein. […] After incubation with cell lysates, the coated antibody captures the phosphorylated Akt protein. […] The magnitude of optical density for this developed color is proportional to the quantity of phosphorylated Akt protein. MCF7 cells (ATCC HTB-22) are seeded into 96 well fate bottom plates at a density of 10000 cells/well. 24 hours after seeding, the cells are serum starved using low-serum medium (IMEM media including 0.1% charcoal treated FCS (FCS: fetal calf serum)). After 24 hours 1 μl each of the compound dilutions (test compounds were dissolved as 10 mM solutions in dimethylsulfoxide (DMSO) and subsequently diluted) are added into each well of the 96 well plates and incubated for 48 h at 37° C. in a humidified athmosphere containing 5% CO2. To stimulate Akt phosphorylation, β-Heregulin (20 ng/mL β-HRG) is added in parallel to the compounds. Wells containing unstimulated control cells (no β-Heregulin stimulation) are incubated with or without the diluted compound. Wells containing untreated control cells (no compound) are filled with medium containing 0.5% v:v DMSO and are or are not stimulated with 3-Heregulin.
# Cells are harvested and lysed with brief sonification in 1× cell lysis buffer (20 mM Tris (pH7.5), 150 mM NaCl, 1 mM ethylene diaminetetraacetate (EDTA), 1 mM ethylene glycolbis(2-aminoethyl)-N,N,N′,N′-tetraacetic acid (EGTA), 1 vol % Triton X-100, 2.5 mM sodium pyrophosphate, 1 mM β-glycerolphosphate, 1 mM Na3VO4, 1 μg/mL leupeptin). The lysate is centrifuged for 10 min. at 4° C. and the supernatant is transferred to a new tube. […] The absorbance is measured at λ=450 nm (Wallac Victor2; Perkin Elmer, USA) within 30 min. after adding the STOP solution. […]
# [2] = molecular target: T1, human recombinant kinase full-length Akt1 (Homo sapiens, UniProt P31749); test: Akt1 kinase assay (TR-FRET); assay type: biochemical; conditions: 10 μM ATP, 1 μM peptide substrate, 60 min at 22° C.; read-out: IC50 Akt1 Biological Assay 1.0)
# T1 construct: human recombinant kinase full-length Akt1; His; purchased Invitrogen PV 3599; host or cells: insect cells
# T1 sequence (P31749 whole entry): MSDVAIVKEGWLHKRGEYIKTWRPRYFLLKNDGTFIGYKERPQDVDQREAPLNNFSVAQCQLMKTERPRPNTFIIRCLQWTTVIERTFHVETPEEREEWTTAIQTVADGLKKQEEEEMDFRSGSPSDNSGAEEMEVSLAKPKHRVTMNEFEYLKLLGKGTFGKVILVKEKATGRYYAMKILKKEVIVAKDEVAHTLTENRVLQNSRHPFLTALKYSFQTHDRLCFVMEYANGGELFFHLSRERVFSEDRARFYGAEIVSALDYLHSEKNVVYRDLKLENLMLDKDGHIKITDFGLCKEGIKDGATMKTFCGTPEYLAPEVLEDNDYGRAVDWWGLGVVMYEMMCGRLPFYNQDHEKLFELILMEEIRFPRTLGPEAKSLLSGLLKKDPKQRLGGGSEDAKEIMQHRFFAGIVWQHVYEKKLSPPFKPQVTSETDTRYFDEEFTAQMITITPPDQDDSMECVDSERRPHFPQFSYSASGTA
# Text: Biological Assay 1.0: Akt1 Kinase Assay
# Akt1 inhibitory activity of compounds of the present invention may be quantified employing the Akt1 TR-FRET assay as described in the following paragraphs.
# His-tagged human recombinant kinase full-length Akt1 expressed in insect cells was purchased form Invitrogen (part number PV 3599). As substrate for the kinase reaction the biotinylated peptide biotin-Ahx-KKLNRTLSFAEPG (C-terminus in amide form) was used which can be purchased e.g. from the company Biosynthan GmbH (Berlin-Buch, Germany).
# (§1) For the assay 50 nl of a 100 fold concentrated solution of the test compound in DMSO was pipetted into a black low volume 384 well microtiter plate (Greiner Bio-One, Frickenhausen, Germany), 2 μl of a solution of Akt1 in assay buffer [50 mM TRIS/HCl pH 7.5, 5 mM MgCl2, 1 mM dithiothreitol, 0.02% (v/v) Triton X-100 (Sigma)] were added and the mixture was incubated for 15 min at 22° C. to allow pre-binding of the test compounds to the enzyme before the start of the kinase reaction. Then the kinase reaction was started by the addition of 3 μl of a solution of adenosine-tri-phosphate (ATP, 16.7 μM=>final conc. in the 5 μl assay volume is 10 μM) and substrate (1.67 μM=>final conc. in the 5 μl assay volume is 1 μM) in assay buffer and the resulting mixture was incubated for a reaction time of 60 min at 22° C. The concentration of Akt1 in the assay was adjusted depending of the activity of the enzyme lot and was chosen appropriate to have the assay in the linear range, typical enzyme concentrations were in the range of about 0.05 ng/μl (final conc. in the 5 μl assay volume).
# (§2) The reaction was stopped by the addition of 5 μl of a solution of HTRF detection reagents (200 nM streptavidine-XL665 [Cisbio] and 1.5 nM anti-phosho-Serine antibody [Millipore, cat. #35-001] and 0.75 nM LANCE Eu-W 1024 labeled anti-mouse IgG antibody [Perkin Elmer]) in an aqueous EDTA-solution (100 mM EDTA, 0.1% (w/v) bovine serum albumin in 50 mM HEPES/NaOH pH 7.5). The resulting mixture was incubated 1 h at 22° C. to allow the binding of the biotinylated phosphorylated peptide to the streptavidine-XL665 and the antibodies. Subsequently the amount of phosphorylated substrate was evaluated by measurement of the resonance energy transfer from the anti-mouse-IgG-Eu-Chelate to the streptavidine-XL665. Therefore, the fluorescence emissions at 620 nm and 665 nm after excitation at 350 nm was measured in a HTRF reader, e.g. a Rubystar (BMG Labtechnologies, Offenburg, Germany) or a Viewlux (Perkin-Elmer). The ratio of the emissions at 665 nm and at […] was taken as the measure for the amount of phosphorylated substrate. The data were normalised (enzyme reaction without inhibitor=0% inhibition, all other assay components but no enzyme=100% inhibition). Normally test compound were tested on the same microtiter plate at 10 different concentrations in the range of 20 μM to 1 nM (20 μM, 6.7 μM, 2.2 μM, 0.74 μM, 0.25 μM, 82 nM, 27 nM, 9.2 nM, 3.1 nM and 1 nM, dilution series prepared before the assay at the level of the 100 fold conc. stock solutions by serial 1:3 dilutions) in duplicate values for each concentration and 1050 values were calculated by a 4 parameter fit using an inhouse software.
# [3] = molecular target: T2, human recombinant kinase full-length Akt2 (Homo sapiens, UniProt P31751); test: Akt2 kinase assay (TR-FRET); assay type: biochemical; conditions: Akt2 activated by PDK1, 10 μM ATP, 1 μM peptide substrate, 60 min at 22° C.; read-out: IC50 Akt2 (Biological Assay 2.0)
# T2 construct: human recombinant kinase full-length Akt2; His; purchased Invitrogen PV 3975; host or cells: insect cells
# T2 sequence (P31751 whole entry): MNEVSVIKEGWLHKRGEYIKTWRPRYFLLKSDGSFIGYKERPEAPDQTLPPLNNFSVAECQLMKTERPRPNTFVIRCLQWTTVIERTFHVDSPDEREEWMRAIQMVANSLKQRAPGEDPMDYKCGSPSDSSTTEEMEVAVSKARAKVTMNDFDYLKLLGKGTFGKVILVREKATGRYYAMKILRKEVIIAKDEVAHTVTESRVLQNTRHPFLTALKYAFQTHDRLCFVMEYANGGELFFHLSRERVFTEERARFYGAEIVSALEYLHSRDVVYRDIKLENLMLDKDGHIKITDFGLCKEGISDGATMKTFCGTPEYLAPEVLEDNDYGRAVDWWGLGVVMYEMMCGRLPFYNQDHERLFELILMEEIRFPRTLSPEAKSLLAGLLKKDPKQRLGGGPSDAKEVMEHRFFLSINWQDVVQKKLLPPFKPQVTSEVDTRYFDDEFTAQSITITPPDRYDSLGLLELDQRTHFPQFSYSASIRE
# Text: Biological Assay 2.0: Akt2 Kinase Assay
# Akt2 inhibitory activity of compounds of the present invention was quantified employing the Akt2 TR-FRET assay as described in the following paragraphs.
# as §1, with “His-tagged human recombinant kinase full-length Akt2 expressed in insect cells and activated by PDK1 was purchased form Invitrogen (part number PV 3975). As substrate for the kinase reaction the biotinylated peptide biotin-Ahx-KKLNRTLSFAEPG (C-terminus in amide form) was used which can be purchased e.g. from the company Biosynthan GmbH (Berlin-Buch, Germany). For” for “For”, “Akt2” for “Akt1”, “0.2” for “0.05”
# as §2, with “a TR-FRET” for “a HTRF”, “inhibition).” for “inhibition). Normally test compound were tested on the same microtiter plate at 10 different concentrations in the range of 20 μM to 1 nM (20 μM, 6.7 μM, 2.2 μM, 0.74 μM, 0.25 μM, 82 nM, 27 nM, 9.2 nM, 3.1 nM and 1 nM, dilution series prepared before the assay at the level of the 100 fold conc. stock solutions by serial 1:3 dilutions) in duplicate values for each concentration and 1050 values were calculated by a 4 parameter fit using an inhouse software.”
SMILES,IC50 [1] [nM],IC50 [2] [nM],IC50 [3] [nM]
"c1ccc(-c2c(-c3ccc(CN4CCC(c5n[nH]c(-c6ccccn6)n5)CC4)cc3)ncn3ccnc23)cc1 [Example 2.0, 8-phenyl-7-{4-[4-(5-pyridin-2-yl-1H-[1,2,4]triazol-3-yl)-piperidin-1-ylmethyl]-phenyl}-imidazo[1,2-c]pyrimidine]",8,8,42
"Cc1nnc2c(-c3ccccc3)c(-c3ccc(CN4CCC(c5n[nH]c(-c6ccccn6)n5)CC4)cc3)ncn12 [Example 4.0, 3-methyl-8-phenyl-7-{4-[4-(5-pyridin-2-yl-1H-[1,2,4]triazol-3-yl)-piperidin-1-ylmethyl]-phenyl}-[1,2,4]triazolo[4,3-c]pyrimidine]",< 500,,
"c1ccc(-c2c(-c3ccc(CN4CC(c5n[nH]c(-c6ccccn6)n5)C4)cc3)ncn3ccnc23)cc1 [Example 16.0, 8-phenyl-7-{4-[3-(5-pyridin-2-yl-1H-[1,2,4]triazol-3-yl)-azetidin-1-ylmethyl]-phenyl}-imidazo[1,2-c]pyrimidine]",,12,52

# Further molecules by falling IC50 [2], results first:
IC50 [1] [nM],IC50 [2] [nM],IC50 [3] [nM],SMILES
,22,222,"FC(F)(F)c1ccnc(-c2nc(C3CCN(Cc4ccc(-c5ncn6ccnc6c5-c5ccccc5)cc4)CC3)n[nH]2)c1 [Example 15.0, 8-phenyl-7-(4-{4-[5-(4-trifluoromethyl-pyridin-2-yl)-1H-[1,2,4]triazol-3-yl]-piperidin-1-ylmethyl}-phenyl)-imidazo[1,2-c]pyrimidine]"
< 50,4,53,"Cc1nc(-c2ccc(CN3CCC(c4n[nH]c(-c5ccccn5)n4)CC3)cc2)c(-c2ccccc2)c2nccn12 [Example 1.0, 5-methyl-8-phenyl-7-{4-[4-(5-pyridin-2-yl-1H-[1,2,4]triazol-3-yl)-piperidin-1-ylmethyl]-phenyl}-imidazo[1,2-c]pyrimidine]"
